Results: ChEMBL document CHEMBL1153480, “Study on the potential anti-cancer activity of phosphonium and ammonium-based ionic liquids” (2009)

What was measured:
Assay type in all cases: functional
[1] = system: SF-539; assay: cells; details: Homo sapiens
Description: Growth inhibition of human SF539 cells assessed as drug level required for 50% reduction in net protein increase by SRB assay relative to control

[2] = system: SK-OV-3; assay: cells; details: Homo sapiens
Description: Growth inhibition of human SKOV3 cells assessed as drug level required for 50% reduction in net protein increase by SRB assay relative to control

[3] = system: NCI/ADR-RES; assay: cells; details: Homo sapiens
Description: Growth inhibition of human NCI/ADR-RES cells assessed as drug level required for 50% reduction in net protein increase by SRB assay relative to control

[4] = system: CCRF-CEM; assay: Cytotoxicity against human CCRF-CEM cells by SRB assay; details: read-out: LC50 (the source's name)
[5] = system: HL-60(TB); assay: Cytotoxicity against human HL-60(TB) cells by SRB assay; details: read-out: LC50 (the source's name)
[6] = system: RPMI-8226; assay: Cytotoxicity against human RPMI8226 cells by SRB assay; details: read-out: LC50 (the source's name)
[7] = system: EKVX; assay: Cytotoxicity against human EKVX cells by SRB assay; details: read-out: LC50 (the source's name)
[8] = system: HOP-92; assay: Cytotoxicity against human HOP92 cells by SRB assay; details: read-out: LC50 (the source's name)
[9] = system: NCI-H226; assay: Cytotoxicity against human NCI-H226 cells by SRB assay; details: read-out: LC50 (the source's name)
[10] = system: NCI-H322M; assay: Cytotoxicity against human NCI-H322M cells by SRB assay; details: read-out: LC50 (the source's name)
[11] = system: HCT-15; assay: Cytotoxicity against human HCT15 cells by SRB assay; details: read-out: LC50 (the source's name)
[12] = system: SF-268; assay: Cytotoxicity against human SF268 cells by SRB assay; details: read-out: LC50 (the source's name)
[13] = system: SF-295; assay: Cytotoxicity against human SF295 cells by SRB assay; details: read-out: LC50 (the source's name)
[14] = system: SF-539; assay: Cytotoxicity against human SF539 cells by SRB assay; details: read-out: LC50 (the source's name)
[15] = system: U-251; assay: Cytotoxicity against human U251 cells by SRB assay; details: read-out: LC50 (the source's name)
[16] = system: LOX IMVI; assay: Cytotoxicity against human LOXIMVI cells by SRB assay; details: read-out: LC50 (the source's name)
[17] = system: SK-MEL-5; assay: Cytotoxicity against human SK-MEL-5 cells by SRB assay; details: read-out: LC50 (the source's name)
[18] = system: UACC-257; assay: Cytotoxicity against human UACC257 cells by SRB assay; details: read-out: LC50 (the source's name)
[19] = system: UACC-62; assay: Cytotoxicity against human UACC62 cells by SRB assay; details: read-out: LC50 (the source's name)
[20] = system: OVCAR-3; assay: Cytotoxicity against human OVCAR-3 cells by SRB assay; details: read-out: LC50 (the source's name)
[21] = system: OVCAR-5; assay: Cytotoxicity against human OVCAR5 cells by SRB assay; details: read-out: LC50 (the source's name)
[22] = system: A498; assay: Cytotoxicity against human A498 cells by SRB assay; details: read-out: LC50 (the source's name)
[23] = system: ACHN; assay: Cytotoxicity against human ACHN cells by SRB assay; details: read-out: LC50 (the source's name)
[24] = system: SN12C; assay: Cytotoxicity against human SN12C cells by SRB assay; details: read-out: LC50 (the source's name)
[25] = system: TK-10; assay: cells; details: Homo sapiens
Description: Growth inhibition of human TK10 cells assessed as cell growth at 10 uM by SRB assay

[26] = system: TK-10; assay: Cytotoxicity against human TK10 cells by SRB assay; details: read-out: LC50 (the source's name)
[27] = system: NCI/ADR-RES; assay: Cytotoxicity against human NCI/ADR-RES cells by SRB assay; details: read-out: LC50 (the source's name)
[28] = system: MDA-MB-231; assay: Cytotoxicity against human MDA-MB-231 cells by SRB assay; details: read-out: LC50 (the source's name)
[29] = system: BT-549; assay: Cytotoxicity against human BT549 cells by SRB assay; details: read-out: LC50 (the source's name)
[30] = system: HCT-116; assay: cells; details: Homo sapiens
Description: Growth inhibition of human HCT116 cells assessed as cell growth at 10 uM by SRB assay

[31] = system: KM12; assay: cells; details: Homo sapiens
Description: Growth inhibition of human KM12 cells assessed as cell growth at 10 uM by SRB assay

[32] = system: SR; assay: cells; details: Homo sapiens
Description: Growth inhibition of human SR cells assessed as drug level required for 50% reduction in net protein increase by SRB assay relative to control

[33] = system: RPMI-8226; assay: cells; details: Homo sapiens
Description: Growth inhibition of human RPMI8226 cells assessed as drug level required for 50% reduction in net protein increase by SRB assay relative to control

[34] = system: SF-268; assay: cells; details: Homo sapiens
Description: Growth inhibition of human SF268 cells assessed as drug level required for 50% reduction in net protein increase by SRB assay relative to control

[35] = system: BT-549; assay: cells; details: Homo sapiens
Description: Growth inhibition of human BT549 cells assessed as cell growth at 10 uM by SRB assay

[36] = system: IGROV-1; assay: cells; details: Homo sapiens
Description: Growth inhibition of human IGROV1 cells assessed as cell growth at 10 uM by SRB assay

Structure (SMILES)	GI50 [1] [µM]	GI50 [2] [µM]	GI50 [3] [µM]	CC50 [4] [µM]	CC50 [5] [µM]	CC50 [6] [µM]	CC50 [7] [µM]	CC50 [8] [µM]	CC50 [9] [µM]	CC50 [10] [µM]	CC50 [12] [µM]	CC50 [13] [µM]	CC50 [20] [µM]	growth at 10 µM [25] [%]	CC50 [29] [µM]	growth at 10 µM [30] [%]	growth at 10 µM [31] [%]	GI50 [32] [µM]	GI50 [33] [µM]	GI50 [34] [µM]	further results
CCCCCCCCCCCCCCCCCCPCCCCCCCCCCCCCC.O=S(=O)(NS(=O)(=O)C(F)(F)F)C(F)(F)F (stereo not drawn)	0.174	2.61	0.73	8.46	0.711	0.098	> 100	> 100	> 100	> 100	> 100	> 100	6.76	-43.3	> 100	-70.8	-100	0.072	0.016	0.072	CC50 [11]: > 100 µM; CC50 [14]: > 100 µM; CC50 [15]: 5.62 µM; CC50 [16]: 0.592 µM; CC50 [17]: 0.829 µM; CC50 [18]: > 100 µM; CC50 [19]: > 100 µM; CC50 [21]: > 100 µM; CC50 [22]: > 100 µM; CC50 [23]: > 100 µM; CC50 [24]: 4.44 µM; CC50 [26]: > 100 µM; CC50 [27]: > 100 µM; CC50 [28]: > 100 µM
CCCCCCCC[N+](C)(CCCCCCCC)CCCCCCCC.O=S(=O)([N-]S(=O)(=O)C(F)(F)F)C(F)(F)F	0.514	0.565	1.68	2.44	1.23	0.951	4.31	4.47	4.41	6.12	5.5	4.57	4.18	-100	4.42	-100	-100	0.162	0.046	0.493	CC50 [11]: 5.23 µM; CC50 [14]: 4.19 µM; CC50 [15]: 4.32 µM; CC50 [16]: 1.08 µM; CC50 [17]: 0.677 µM; CC50 [18]: 6.16 µM; CC50 [19]: 4.1 µM; CC50 [21]: 8.17 µM; CC50 [22]: 6.36 µM; CC50 [23]: 4.52 µM; CC50 [24]: 4.06 µM; CC50 [26]: 4.86 µM; CC50 [27]: 8.13 µM; CC50 [28]: 3.63 µM
CCCCCCCCCCCCCCCCCCPCCCCCCCCCCCCCC (stereo not drawn) [MONO(OCTADECYL(TETRADECYL)PHOSPHONIUM) MONO(HEXAFLUOROPHOSPHATE(V)) MONO(TETRAFLUOROBORATE)]	0.234	0.331	0.947	–	–	–	–	–	–	–	> 100	> 100	> 100	-75	> 100	-13.1	-52.2	0.107	0.016	0.088	growth at 10 µM [35]: -83.5%; growth at 10 µM [36]: -19.6%
